Data reported in ChEMBL document CHEMBL3046894, “Synthesis and Herbicidal Activity of Pyrimidinyl Salicylic and Thiosalicylic Acids” (J Pestic Sci, 1996).
Active and inactive are the calls of the source. The calls are words filed in the database; no cut-off is given here.

Key:
Xanthium strumarium [1] = assay: Pre-emergence herbicidal activity against Xanthium strumarium (cocklebur) assessed as mortality per 10 acre; assay type: functional
Echinochloa crus-galli [2] = assay: Post-emergence herbicidal activity against Echinochloa crus-galli (barnyard grass) assessed as mortality per 10 acre; assay type: functional
Persicaria nodosa [3] = assay: Post-emergence herbicidal activity against Persicaria nodosa assessed as mortality per 10 acre; assay type: functional
Xanthium strumarium [4] = assay: Post-emergence herbicidal activity against Xanthium strumarium (cocklebur) assessed as mortality at 1.6 g a.i/10 a applied 11 days after germination as foliar spray; assay type: functional; conditions: 264 h
Gossypium hirsutum [5] = assay: Post-emergence phytotoxicity against Gossypium hirsutum (cotton) assessed as mortality per 10 acre; assay type: organism-based; conditions: in vivo
[6] = Pre-emergence phytotoxicity against Zea mays (maize) assessed as mortality at 1.6 g a.i/10 a; assay type: organism-based; conditions: in vivo, 1.6 g a.i/10 a, read-out: mortality
[7] = Post-emergence phytotoxicity against Glycine max (soybean) assessed as mortality at 1.6 g a.i/10 a applied 11 days after germination as foliar spray; assay type: organism-based; conditions: in vivo, 1.6 g a.i/10 a
Echinochloa crus-galli [8] = assay: Pre-emergence herbicidal activity against Echinochloa crus-galli (barnyard grass) assessed as mortality per 10 acre; assay type: functional
Ipomoea lacunosa [9] = assay: Pre-emergence herbicidal activity against Ipomoea lacunosa assessed as mortality at 6.3 g a.i/10 a; assay type: functional; conditions: Ipomoea lacunosa, pre-emergence
Cyperus iria [10] = assay: Post-emergence herbicidal activity against Cyperus iria assessed as growth inhibition at 25 g a.i/10 a applied 11 days after germination as foliar spray; assay type: functional, organism-based
[11] = Post-emergence phytotoxicity against Zea mays (maize) assessed as mortality at 1.6 g a.i/10 a applied 11 days after germination as foliar spray; assay type: organism-based; conditions: in vivo, 1.6 g a.i/10 a
Cyperus iria [12] = assay: Pre-emergence herbicidal activity against Cyperus iria assessed as growth inhibition at 25 g a.i/10 a; assay type: functional, organism-based
Amaranthus retroflexus [13] = assay: Pre-emergence herbicidal activity against Amaranthus retroflexus assessed as growth inhibition at 25 g a.i/10 a; assay type: functional, organism-based
Echinochloa crus-galli [14] = assay: Post-emergence herbicidal activity against Echinochloa crus-galli (barnyard grass) assessed as growth inhibition at 25 g a.i/10 a applied 11 days after germination as foliar spray; assay type: functional, organism-based
Persicaria nodosa [15] = assay: Post-emergence herbicidal activity against Persicaria nodosa assessed as growth inhibition at 25 g a.i/10 a applied 11 days after germination as foliar spray; assay type: functional, organism-based
Digitaria sanguinalis [16] = assay: Post-emergence herbicidal activity against Digitaria sanguinalis (hairy crabgrass) assessed as growth inhibition at 25 g a.i/10 a applied 11 days after germination as foliar spray; assay type: functional, organism-based
Gossypium hirsutum [17] = assay: Pre-emergence phytotoxicity against Gossypium hirsutum (cotton) assessed as mortality per 10 acre; assay type: organism-based; conditions: in vivo
Glycine max [18] = assay: Pre-emergence phytotoxicity against Glycine max (soybean) assessed as mortality at 1.6 g a.i/10 a; assay type: organism-based; conditions: in vivo, other
Persicaria nodosa [19] = assay: Pre-emergence herbicidal activity against Persicaria nodosa assessed as mortality per 10 acre; assay type: functional
Ipomoea lacunosa [20] = assay: Post-emergence herbicidal activity against Ipomoea lacunosa assessed as mortality at 1.6 g a.i/10 a applied 11 days after germination as foliar spray; assay type: functional; conditions: 264 h
Echinochloa crus-galli [21] = assay: Pre-emergence herbicidal activity against Echinochloa crus-galli (barnyard grass) assessed as growth inhibition at 25 g a.i/10 a; assay type: functional, organism-based
Gossypium hirsutum [22] = assay: Pre-emergence phytotoxicity against Gossypium hirsutum (cotton) assessed as mortality at 6.3 g a.i/10 a; assay type: organism-based; conditions: in vivo, other
Amaranthus retroflexus [23] = assay: Pre-emergence herbicidal activity against Amaranthus retroflexus assessed as mortality per 10 acre; assay type: functional
Glycine max [24] = assay: Pre-emergence phytotoxicity against Glycine max (soybean) assessed as mortality at 6.3 g a.i/10 a; assay type: organism-based; conditions: in vivo, other
Ipomoea lacunosa [25] = assay: Pre-emergence herbicidal activity against Ipomoea lacunosa assessed as mortality per 10 acre; assay type: functional
Ipomoea lacunosa [26] = assay: Pre-emergence herbicidal activity against Ipomoea lacunosa assessed as mortality at 1.6 g a.i/10 a; assay type: functional; conditions: Ipomoea lacunosa, pre-emergence
Amaranthus retroflexus [27] = assay: Post-emergence herbicidal activity against Amaranthus retroflexus assessed as growth inhibition at 25 g a.i/10 a applied 11 days after germination as foliar spray; assay type: functional, organism-based
Chenopodium album [28] = assay: Post-emergence herbicidal activity against Chenopodium album assessed as growth inhibition at 25 g a.i/10 a applied 11 days after germination as foliar spray; assay type: functional, organism-based
Amaranthus retroflexus [29] = assay: Post-emergence herbicidal activity against Amaranthus retroflexus assessed as mortality per 10 acre; assay type: functional
Ipomoea lacunosa [30] = assay: Post-emergence herbicidal activity against Ipomoea lacunosa assessed as mortality per 10 acre; assay type: functional
Echinochloa crus-galli [31] = assay: Post-emergence herbicidal activity against Echinochloa crus-galli (barnyard grass) assessed as mortality at 6.3 g a.i/10 a applied 11 days after germination as foliar spray; assay type: functional; conditions: 264 h
Digitaria sanguinalis [32] = assay: Pre-emergence herbicidal activity against Digitaria sanguinalis (hairy crabgrass) assessed as growth inhibition at 25 g a.i/10 a; assay type: functional, organism-based
Xanthium strumarium [33] = assay: Post-emergence herbicidal activity against Xanthium strumarium (cocklebur) assessed as mortality per 10 acre; assay type: functional
Abutilon theophrasti = assay: Post-emergence herbicidal activity against Abutilon theophrasti (velvetleaf) assessed as mortality at 6.3 g a.i/10 a applied 11 days after germination as foliar spray; assay type: functional; conditions: 264 h
Persicaria nodosa [34] = assay: Pre-emergence herbicidal activity against Persicaria nodosa assessed as growth inhibition at 25 g a.i/10 a; assay type: functional, organism-based
Echinochloa crus-galli [35] = assay: Pre-emergence herbicidal activity against Echinochloa crus-galli (barnyard grass) assessed as mortality at 6.3 g a.i/10 a; assay type: functional; conditions: Echinochloa crus-galli, pre-emergence
Gossypium hirsutum [36] = assay: Post-emergence phytotoxicity against Gossypium hirsutum (cotton) assessed as mortality at 6.3 g a.i/10 a applied 11 days after germination as foliar spray; assay type: organism-based; conditions: in vivo, other, 264 h
Chenopodium album [37] = assay: Pre-emergence herbicidal activity against Chenopodium album assessed as growth inhibition at 25 g a.i/10 a; assay type: functional, organism-based
Gossypium hirsutum [38] = assay: Post-emergence phytotoxicity against Gossypium hirsutum (cotton) assessed as mortality at 1.6 g a.i/10 a applied 11 days after germination as foliar spray; assay type: organism-based; conditions: in vivo, other, 264 h
Xanthium strumarium [39] = assay: Pre-emergence herbicidal activity against Xanthium strumarium (cocklebur) assessed as mortality at 1.6 g a.i/10 a; assay type: functional; conditions: Xanthium strumarium, pre-emergence

COc1cc(OC)nc(Oc2cccc(C)c2C(=O)O)n1
ED90 (Xanthium strumarium [1]): >100 gAi
ED90 (Echinochloa crus-galli [2]): inactive
ED90 (Persicaria nodosa [3]): 0.4 gAi
mortality at 16 g/ha (Xanthium strumarium [4]): < 5%
ED20 (Gossypium hirsutum [5]): 0.4 gAi
mortality [6]: > 90%
mortality at 264 h [7]: > 90%
ED90 (Echinochloa crus-galli [8]): Active
mortality at 63 g/ha (Ipomoea lacunosa [9]): < 5%
growth inhibition (GI) (Cyperus iria [10]): Active
mortality at 264 h [11]: > 90%
growth inhibition (GI) (Cyperus iria [12]): Active
growth inhibition (GI) (Amaranthus retroflexus [13]): Active
growth inhibition (GI) (Echinochloa crus-galli [14]): Active
growth inhibition (GI) (Persicaria nodosa [15]): Active
growth inhibition (GI) (Digitaria sanguinalis [16]): Active
ED20 (Gossypium hirsutum [17]): Toxic
Activity (Glycine max [18]): Toxic
ED90 (Persicaria nodosa [19]): Active
mortality at 16 g/ha (Ipomoea lacunosa [20]): < 5%
growth inhibition (GI) (Echinochloa crus-galli [21]): Active
Activity (Gossypium hirsutum [22]): Non-toxic
ED90 (Amaranthus retroflexus [23]): inactive
Activity (Glycine max [24]): Toxic
ED90 (Ipomoea lacunosa [25]): >100 gAi
mortality at 16 g/ha (Ipomoea lacunosa [26]): < 5%
growth inhibition (GI) (Amaranthus retroflexus [27]): Active
growth inhibition (GI) (Chenopodium album [28]): Active
ED90 (Amaranthus retroflexus [29]): 0.2 gAi
ED90 (Ipomoea lacunosa [30]): 100 gAi
mortality at 63 g/ha (Echinochloa crus-galli [31]): > 90%
growth inhibition (GI) (Digitaria sanguinalis [32]): Active
ED90 (Xanthium strumarium [33]): 25 gAi
mortality at 63 g/ha (Abutilon theophrasti): > 90%
growth inhibition (GI) (Persicaria nodosa [34]): Active
mortality at 63 g/ha (Echinochloa crus-galli [35]): > 90%
Activity (Gossypium hirsutum [36]): Non-toxic
growth inhibition (GI) (Chenopodium album [37]): Active
Activity (Gossypium hirsutum [38]): Non-toxic
mortality at 16 g/ha (Xanthium strumarium [39]): < 5%
